Target: T1, Kinesin^CaaX (Trypanosoma brucei, UniProt Q388Z9)
T1 construct: gene Tb10.389.1270; truncated N-terminal 340-residue motor domain plus coil (full length 832 residues), N-terminal 6xHis, E. coli BL21 soluble lysate, about 44 kDa
T1 sequence (Q388Z9 1-340): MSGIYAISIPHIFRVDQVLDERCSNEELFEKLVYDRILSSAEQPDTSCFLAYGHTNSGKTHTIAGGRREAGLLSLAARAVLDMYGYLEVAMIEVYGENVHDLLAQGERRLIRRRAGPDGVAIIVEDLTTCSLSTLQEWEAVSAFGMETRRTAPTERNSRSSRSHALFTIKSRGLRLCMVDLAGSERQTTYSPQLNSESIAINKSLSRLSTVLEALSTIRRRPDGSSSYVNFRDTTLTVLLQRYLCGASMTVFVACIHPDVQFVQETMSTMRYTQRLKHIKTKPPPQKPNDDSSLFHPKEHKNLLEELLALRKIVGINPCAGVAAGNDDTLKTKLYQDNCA
Assay: microtubule gliding motility assay
Type: biochemical
Details: 1 mM MgATP, BRB80 pH 6.9, taxol-stabilised bovine microtubules; E. coli lysate with recombinant motor domain

## Nc1ncnc2c1ncn2[C@@H]1O[C@H](COP(=O)(O)OP(=O)(O)OP(=O)(O)O)[C@@H](O)[C@H]1O [ATP]
  microtubule gliding motility assay: both ATP and the Kinesin^CaaX motor domain were required to move microtubules

— publication PMC3206815, “An Essential Farnesylated Kinesin in Trypanosoma brucei” (PLoS ONE, 2011)
